Assay results: patent EP4790048A1, “S1PR4 REGULATOR COMPOUND FOR AUTOIMMUNE DISEASE TREATMENT AND APPLICATION THEREOF” (Shengyuan Zetong (Shanghai) Pharmaceutical Co., Ltd, priority 2023, dated 2025)

Experiments:
hS1P1 = target: T1, hS1P1 (Homo sapiens, UniProt P21453); assay: Tango β-arrestin recruitment luciferase assay, Tango-hS1P1-CHO; assay type: cell-based; conditions: S1PR1; Tango-S1PR1-CHO-K1 cells; mean ± SD; read-out: EC50
T1 construct: expressed in transfected cells; host or cells: CHO
T1 sequence (P21453 whole entry): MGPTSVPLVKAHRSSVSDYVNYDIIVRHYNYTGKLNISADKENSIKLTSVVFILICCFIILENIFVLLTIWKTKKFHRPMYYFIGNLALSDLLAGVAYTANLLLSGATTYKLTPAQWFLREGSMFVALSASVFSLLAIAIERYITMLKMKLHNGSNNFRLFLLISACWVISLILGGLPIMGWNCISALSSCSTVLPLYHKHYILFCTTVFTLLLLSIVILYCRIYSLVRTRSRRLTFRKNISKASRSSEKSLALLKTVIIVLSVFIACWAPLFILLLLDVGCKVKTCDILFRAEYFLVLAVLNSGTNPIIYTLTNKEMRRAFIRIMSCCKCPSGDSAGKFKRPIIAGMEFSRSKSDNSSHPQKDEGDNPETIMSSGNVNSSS
Outline: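 CHO Tango cells (receptor–V2 tail–TEV/tTA fusion, β-arrestin 2–TEV, UAS-luciferase reporter) plated overnight (20 h) at 37°C, then treated 20 h with compounds, top final 45 µM, 9 five-fold dilutions, triplicates. Luciferase luminescence read; BAF-312 positive control at 1 µM (S1PR1) or 25 µM (S1PR4).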

SD rats = assay: MIA-induced osteoarthritis (OA) model in rats; assay type: in vivo; conditions: for gross observation of knee joint femoral condyle cartilage: Day 15 dissection, 5 rats per group
Procedure: SD rats, approximately 200 g, male. Purchased from Shanghai Bikai Animal Co., Ltd. Adaptive feeding was conducted for about 7 days.
3.1.1 Anesthesia: the rat was placed into the anesthesia box, the O2 gas source and the gas delivery pump were turned on, and the gas adjustment knob was rotated to set the ratio of O2 to isoflurane at 8:2. The anesthesia depth knob was adjusted: first the indicator was turned to 3 to induce deep anesthesia in the rat; during the subsequent surgical procedure, the indicator was adjusted to 1.5 to maintain anesthesia. The three-way valve was opened to deliver gas into both the anesthesia box and the rat anesthesia mask.
The syringe needle was inserted at a 45° angle to the plateau along the lateral side of the patellar ligament, as shown in the figure below. The Control group is injected with 50 µl of 0.9% sterile normal saline, while the other groups are injected with 50 µl of sterile normal saline containing 3 mg of MIA. After the procedure, the rat was removed, placed in a breeding cage, and irradiated with an incandescent lamp to help restore body temperature until the rat recovers from anesthesia.
The Control group was administered 5% DMSO + 35% PEG400 + 60% normal saline. The compounds were dissolved in a system consisting of 5% dimethyl sulfoxide (DMSO), 35% polyethylene glycol 400 (PEG 400), and 60% normal saline. The drug solutions were prepared on the evening one day before administration.
The rats were acclimated for 1 week and randomly divided into groups, with a total of 10 rats. The Control group was administered 5% DMSO + 35% PEG400 + 60% normal saline, while the other groups were given the test compounds dissolved in 5% DMSO + 35% PEG400 + 60% normal saline.
3.4.1. From Day 1 to Day 14 of the experiment, the rats were administered intragastrically once daily, with a gavage volume of 5 mL/kg. The Control group and Model group were given 5% DMSO + 35% PEG400 + 60% normal saline throughout the experiment, while the other groups were administered the corresponding drugs.
On Day 7 and Day14 of the experiment, behavioral and joint pain tests were performed on the rats. To minimize confounding factors, the tests were conducted 1 hour after administration at a fixed time, preventing variations in the rats' condition at different time points from affecting the experimental results. The rats were allowed to acclimate to the environment for 20 minutes before the start of the experiment. • (1) Observation of walking distance and rearing times within five minutes: the dimensions of the resin box were measured and a paper sheet of the corresponding size was prepared. 1 cm × 1 cm grids were drawn on the paper sheet. The paper sheet was sealed with a transparent tape to prevent damage from rat excrement. Then the paper sheet with 1 cm × 1 cm grids was placed into the transparent resin box, ensuring a flat bottom. A camera device was used to record the walking process and trajectory of the rat within 5 minutes, and the walking distance and rearing times of the rat were counted. • (2) Joint Pain Assessment: After fixing the rat and allowing it to calm down, its knee joint was gently bent. […] The knee joint pain severity in rats is reflected by the scores of leg withdrawal and vocalization. The joint pain assessment was performed every 5 seconds for a total of 5 times.
On Day 15 of the experiment, the rats were anesthetized, and blood was collected from their eyeballs. The serum was left to stand overnight at 4°C, centrifuged at 3600 rpm for 15 minutes at 4°C. The serum was aspirated and stored at -80°C. The rats were sacrificed by cervical dislocation. An incision was made along the knee joint on ice to remove fur, muscle, and other tissues. For each group, 5 rats were used; bilateral knee joints were dissected, and the color, roughness, and integrity of the femoral condyle surface were observed. The knee joint cartilage was then harvested and cryopreserved at -80°C. […]

[1] = DAY7, 0.3 mg/kg intragastric once daily, vs Model group
[2] = DAY7, 3 mg/kg intragastric once daily, vs Model group
[3] = DAY14, 0.3 mg/kg, vs Model group

Row | SMILES | EC50 (hS1P1) | OARSI score (severity of knee osteoarthritis) (SD rats; 0.3 mg/kg, vs Model group) | OARSI score (severity of knee osteoarthritis) (SD rats; 1 mg/kg, vs Model group) | OARSI score (severity of knee osteoarthritis) (SD rats; 3 mg/kg, vs Model group) | pain index (SD rats; [1]) | five-minute walking distance (SD rats; DAY7, 0.3 mg/kg, vs Model group) | five-minute walking distance (SD rats; DAY7, 1 mg/kg, vs Model group) | pain index (SD rats; [2]) | five-minute walking distance (SD rats; [3]) | pain index (SD rats; DAY14, 1 mg/kg, vs Model group) | five-minute walking distance (SD rats; DAY14, 3 mg/kg, vs Model group) | pain index (SD rats; DAY14, 3 mg/kg, vs Model group) | gross observation of knee joint femoral condyle cartilage (SD rats) | Safranin O-Fast Green staining of knee joints (SD rats; vs Model group) | pain index (SD rats; DAY7, 1 mg/kg intragastric once daily, vs Model group) | five-minute walking distance (SD rats; DAY14, 1 mg/kg, vs Model group) | serum IL-10 level (SD rats; Elisa, vs Model group) | serum IL-17 level (SD rats; Elisa, vs Model group)
1 | CCc1cc(/C(C)=N/OCc2ccc(-c3ccccc3)c(C)c2)ccc1CN1CC[C@H](C(=O)O)C1 [Compound 30] | 87.6 ± 3.35 nM | showed significant differences | showed significant differences | showed significant differences | significantly decreased | increased significantly | increased significantly | significantly decreased | increased significantly | significantly decreased | increased significantly | significantly decreased | knee cartilage in most rats became smooth and glossy | enhanced safranin staining |  |  |  | 
2 | CCc1cc(/C(C)=N/OCc2ccc(-c3cnc(F)cn3)c(C)c2)ccc1CN1CC[C@H](C(=O)O)C1 [Compound 67, (S, E)-1-(2-ethyl-4-(1-(((4-(5-fluoropyrazin-2-yl)-3-methylbenzyl)oxy)imino)ethyl)benzyl)pyrrolidine-3-carboxylic acid] | 195 ± 16 nM |  | showed significant effects | showed significant effects | significantly decreased |  | increased significantly | significantly decreased | increased significantly | significantly decreased | increased significantly | significantly decreased | cartilage of most rat knee joints became smooth and bright | enhanced Safranin O staining | significantly decreased | increased significantly | tended to upregulate | tended to upregulate
